US12077503B2, “Substituted cyclic amides and their use as herbicides” (FMC CORPORATION, priority 2015, dated 2024)

Tests used:
Type in all cases: in vivo
[1] = tested on: barnyardgrass (Echinochloa crus-galli); assay: Test A postemergence; conditions: Echinochloa crus-galli, post-emergence, 240 h, Postemergence
Outline: (§1)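 Seeded soil received test chemicals as a preemergence directed spray, and seedlings at one to two leaves, 2–10 cm tall, received them postemergence, in a non-phytotoxic, surfactant-containing solvent mixture. Pots were held in a greenhouse for approximately 10 d, then rated for injury from 0, no effect, to 100, complete control.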

[2] = tested on: ryegrass, Italian (Italian ryegrass, Lolium multiflorum); assay: Test A postemergence; conditions: Lolium multiflorum, post-emergence, 240 h, Postemergence
Outline: as §1

[3] = tested on: wheat (Triticum aestivum); assay: Test A postemergence; conditions: Triticum aestivum, post-emergence, 240 h, Postemergence
Outline: as §1

[4] = tested on: pigweed (Amaranthus retroflexus); assay: Test A postemergence; conditions: Amaranthus retroflexus, post-emergence, 240 h, Postemergence
Outline: as §1

corn (Zea mays) = assay: Test A postemergence; conditions: Zea mays, post-emergence, 240 h, Postemergence
Outline: as §1

[5] = tested on: ragweed (common ragweed, Ambrosia elatior); assay: Test A postemergence; conditions: Ambrosia artemisiifolia, post-emergence, 240 h, Postemergence
Outline: as §1

[6] = tested on: giant foxtail (Setaria faberii); assay: Test A postemergence; conditions: Setaria faberi, post-emergence, 240 h, Postemergence
Outline: as §1

[7] = tested on: Galium (catchweed bedstraw, Galium aparine); assay: Test A postemergence; conditions: Galium, post-emergence, 240 h, Postemergence
Outline: as §1

Kochia (Kochia scoparia) [8] = assay: Test A postemergence; conditions: Bassia scoparia, post-emergence, 240 h, Postemergence
Outline: as §1

[9] = tested on: barnyardgrass (Echinochloa crus-galli); assay: Test A preemergence; conditions: Echinochloa crus-galli, pre-emergence, 240 h, 0 to 100 scale (0 no effect, 100 complete control), read-out: Plant response rating, Barnyardgrass
Outline: as §1

[10] = tested on: ryegrass, Italian (Italian ryegrass, Lolium multiflorum); assay: Test A preemergence; conditions: Lolium multiflorum, pre-emergence, 240 h, 0 to 100 scale (0 no effect, 100 complete control), read-out: Plant response rating, Ryegrass, Italian
Outline: as §1

[11] = tested on: pigweed (Amaranthus retroflexus); assay: Test A preemergence; conditions: Amaranthus retroflexus, pre-emergence, 240 h, 0 to 100 scale (0 no effect, 100 complete control), read-out: Plant response rating, Pigweed
[12] = tested on: ragweed (common ragweed, Ambrosia elatior); assay: Test A preemergence; conditions: Ambrosia artemisiifolia, pre-emergence, 240 h, 0 to 100 scale (0 no effect, 100 complete control), read-out: Plant response rating, Ragweed
Outline: as §1

[13] = tested on: giant foxtail (Setaria faberii); assay: Test A preemergence; conditions: Setaria faberi, pre-emergence, 240 h, 0 to 100 scale (0 no effect, 100 complete control), read-out: Plant response rating, Foxtail, Giant
Outline: as §1

Kochia (Kochia scoparia) [14] = assay: Test A preemergence; conditions: Bassia scoparia, pre-emergence, 240 h, 0 to 100 scale (0 no effect, 100 complete control), read-out: Plant response rating, Kochia
Outline: as §1

O=C1NC[C@H](c2cnc(C(F)(F)F)nc2)[C@H]1C(=O)Nc1cccc(F)c1F [Compound 1382]
pest or weed control at 125 g/ha ([1]; 125 g ai/ha, visual rating about 10 d after treatment, read-out: Barnyardgrass plant response rating (0 to 100 scale, 0 no effect, 100 complete control)): 0%
pest or weed control at 500 g/ha ([1]; 500 g ai/ha, visual injury, 0 to 100 scale (0 no effect, 100 complete control), approx. 10 d, read-out: Plant response rating, Barnyardgrass): 80%
pest or weed control at 125 g/ha ([2]; 125 g ai/ha, visual rating about 10 d after treatment, read-out: Ryegrass, Italian plant response rating (0 to 100 scale)): 0%
pest or weed control at 500 g/ha ([2]; 500 g ai/ha, visual injury, 0 to 100 scale (0 no effect, 100 complete control), approx. 10 d, read-out: Plant response rating, Ryegrass, Italian): 0%
plant injury at 125 g/ha ([3]; 125 g ai/ha, visual rating about 10 d after treatment, read-out: Wheat plant response rating (0 to 100 scale)): 0%
plant injury at 500 g/ha ([3]; 500 g ai/ha, visual injury, 0 to 100 scale (0 no effect, 100 complete control), approx. 10 d, read-out: Plant response rating, Wheat): 0%
pest or weed control at 125 g/ha ([4]; 125 g ai/ha, visual rating about 10 d after treatment, read-out: Pigweed plant response rating (0 to 100 scale)): 0%
pest or weed control at 500 g/ha ([4]; 500 g ai/ha, visual injury, 0 to 100 scale (0 no effect, 100 complete control), approx. 10 d, read-out: Plant response rating, Pigweed): 0%
plant injury at 125 g/ha (corn (Zea mays); 125 g ai/ha, visual rating about 10 d after treatment, read-out: Corn plant response rating (0 to 100 scale)): 0%
Corn plant response rating (crop injury, 0 = no effect, 100 = complete kill) at 500 g/ha (corn (Zea mays); 500 g ai/ha, visual injury, 0 to 100 scale (0 no effect, 100 complete control), approx. 10 d): 0%
pest or weed control at 125 g/ha ([5]; 125 g ai/ha, visual rating about 10 d after treatment, read-out: Ragweed plant response rating (0 to 100 scale)): 0%
pest or weed control at 500 g/ha ([5]; 500 g ai/ha, visual injury, 0 to 100 scale (0 no effect, 100 complete control), approx. 10 d, read-out: Plant response rating, Ragweed): 0%
pest or weed control at 125 g/ha ([6]; 125 g ai/ha, visual rating about 10 d after treatment, read-out: Foxtail, Giant plant response rating (0 to 100 scale)): 0%
pest or weed control at 500 g/ha ([6]; 500 g ai/ha, visual injury, 0 to 100 scale (0 no effect, 100 complete control), approx. 10 d, read-out: Plant response rating, Foxtail, Giant): 70%
pest or weed control at 125 g/ha ([7]; 125 g ai/ha, visual rating about 10 d after treatment, read-out: Galium plant response rating (0 to 100 scale)): 0%
pest or weed control at 500 g/ha ([7]; 500 g ai/ha, visual injury, 0 to 100 scale (0 no effect, 100 complete control), approx. 10 d, read-out: Plant response rating, Galium): 30%
pest or weed control at 125 g/ha (Kochia (Kochia scoparia) [8]; 125 g ai/ha, visual rating about 10 d after treatment, read-out: Kochia plant response rating (0 to 100 scale)): 0%
pest or weed control at 500 g/ha (Kochia (Kochia scoparia) [8]; 500 g ai/ha, visual injury, 0 to 100 scale (0 no effect, 100 complete control), approx. 10 d, read-out: Plant response rating, Kochia): 0%
pest or weed control at 500 g/ha ([9]; 500 g ai/ha, preemergence): 70%
pest or weed control at 125 g/ha ([9]; Preemergence, 125 g ai/ha): 0%
pest or weed control at 500 g/ha ([10]; 500 g ai/ha, preemergence): 0%
pest or weed control at 125 g/ha ([10]; Preemergence, 125 g ai/ha): 0%
pest or weed control at 500 g/ha ([11]; 500 g ai/ha, preemergence): 20%
pest or weed control at 125 g/ha ([11]; Preemergence, 125 g ai/ha): 20%
pest or weed control at 500 g/ha ([12]; 500 g ai/ha, preemergence): 0%
pest or weed control at 125 g/ha ([12]; Preemergence, 125 g ai/ha): 0%
pest or weed control at 500 g/ha ([13]; 500 g ai/ha, preemergence): 90%
pest or weed control at 125 g/ha ([13]; Preemergence, 125 g ai/ha): 0%
pest or weed control at 500 g/ha (Kochia (Kochia scoparia) [14]; 500 g ai/ha, preemergence): 60%
pest or weed control at 125 g/ha (Kochia (Kochia scoparia) [14]; Preemergence, 125 g ai/ha): 0%
